Assay [1] concerns the target T1, recombinant rat mEH (Rattus norvegicus, UniProt P07687).
T1 sequence (P07687 1-455): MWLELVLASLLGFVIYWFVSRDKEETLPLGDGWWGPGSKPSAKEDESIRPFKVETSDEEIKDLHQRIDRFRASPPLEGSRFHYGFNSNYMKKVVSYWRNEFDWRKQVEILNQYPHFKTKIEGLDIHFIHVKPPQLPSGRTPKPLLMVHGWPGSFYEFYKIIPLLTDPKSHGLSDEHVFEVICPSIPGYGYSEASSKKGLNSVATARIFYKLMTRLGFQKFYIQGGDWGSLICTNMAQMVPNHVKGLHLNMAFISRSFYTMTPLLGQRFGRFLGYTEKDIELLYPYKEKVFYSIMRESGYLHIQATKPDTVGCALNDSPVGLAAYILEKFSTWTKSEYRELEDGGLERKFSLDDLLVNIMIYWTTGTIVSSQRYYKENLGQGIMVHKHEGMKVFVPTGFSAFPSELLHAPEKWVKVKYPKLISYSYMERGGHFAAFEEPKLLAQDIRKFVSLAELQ
Briefly: Inhibition of recombinant rat mEH. The class given is biochemical. As to the method: (§1) The micosomal enzyme plays a significant role in the metabolism of xenobiotics such as polyaromatic toxicants. Additionally, polymorphism studies have underlined a potential role of this enzyme in relation to several diseases, such as emphysema, spontaneous abortion and several forms of cancer. Inhibition of recombinant rat and human mEH can be obtained using primary ureas, amides, and amines. For example, elaidamide, has a K1 of 70 nM for recombinant rat mEH.

Assay [2] concerns insect cell culture expressing rat mEH. Kind of assay: Insect cell culture expressing rat mEH, toxicity of epoxide-containing xenobiotics. Type of assay: cell-based. As to the method:
as §1

Take `CCCCCCCC/C=C/CCCCCCCC(N)=O` [elaidamide]: the “inhibition kinetics with mEH” value in assay [1] (non-covalent complex) is “apparent mix of competitive and non-competitive inhibition kinetics”. Also, the Ki in assay [1] (read-out: K1 for recombinant rat mEH) is 70 nM. In assay [2], the “effect on toxicity of epoxide-containing xenobiotics” value is on record as “enhances the toxicity effects”.

For the origin of these results see patent US6756210B2, “Linoleic acid diol and glucuronide conjugate levels as diagnostic markers of disorders of abnormal regulation of cytochrome P450 metabolism of unsaturated fatty acids” (The Regents of the University of California, priority 2001, dated 2004).
